# Measurements: patent US10722501B2 (BAYER AKTIENGESELLSCHAFT, priority 2016, dated 2020)
# pIC50: −log10 of the molar value.
# Target: T1, recombinant full-length human prolyl endopeptidase (PREP) (Homo sapiens, UniProt P48147)
# T1 construct: To recombinant full-length human prolyl endopeptidase (PREP, R&D-Systems, 4308-SE); purchased R&D-Systems 4308-SE
# T1 sequence (P48147 1-710): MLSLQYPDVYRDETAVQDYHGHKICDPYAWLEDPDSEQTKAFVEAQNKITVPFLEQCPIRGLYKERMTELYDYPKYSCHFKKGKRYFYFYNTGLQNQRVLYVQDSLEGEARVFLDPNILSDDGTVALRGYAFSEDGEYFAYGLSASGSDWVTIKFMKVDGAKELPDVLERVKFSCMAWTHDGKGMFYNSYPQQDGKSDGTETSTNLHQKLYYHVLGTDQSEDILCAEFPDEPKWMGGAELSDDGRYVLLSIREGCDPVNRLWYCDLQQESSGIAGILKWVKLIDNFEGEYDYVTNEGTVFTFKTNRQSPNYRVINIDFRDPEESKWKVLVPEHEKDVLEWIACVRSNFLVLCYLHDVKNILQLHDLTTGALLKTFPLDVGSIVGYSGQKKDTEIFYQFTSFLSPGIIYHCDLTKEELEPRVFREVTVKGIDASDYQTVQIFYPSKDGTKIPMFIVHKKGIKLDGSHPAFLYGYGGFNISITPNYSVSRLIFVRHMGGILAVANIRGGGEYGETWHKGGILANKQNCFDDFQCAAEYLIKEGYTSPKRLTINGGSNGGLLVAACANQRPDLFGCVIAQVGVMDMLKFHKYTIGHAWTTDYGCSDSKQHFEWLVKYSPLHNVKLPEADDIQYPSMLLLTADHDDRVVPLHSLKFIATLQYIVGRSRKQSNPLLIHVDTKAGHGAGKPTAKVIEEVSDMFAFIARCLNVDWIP
# Experiment: Biochemical human prolyl endopeptidase (PREP) assay with fluorescently labelled substrate
# Details: substrate Z-Gly-Pro-AMC 50 μM, 32° C., 60 min; some as mean values from multiple independent determinations
# In short: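 Initial rates of fluorescence increase from 50 μM Z-Gly-Pro-AMC cleavage (ex 360/em 465 nm, 60 min, 32° C) give percent PREP activity versus no-compound control, and IC50 is interpolated. Enzyme used at 0.4 nM (final, example) in Tris pH 7.5 with EDTA, GSH, BSA and Brij-35; compounds span 1 nM to 30 μM.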
row,SMILES,pIC50
1,"O=C(C1CC(C(F)(F)F)Cc2nn(Cc3ccnc(C(F)(F)F)c3F)c(=O)n21)N1C[C@@H](F)[C@@H](F)C1 (single isomer, unassigned) [Example 261]",9.00
2,"O=C(C1CC(C(F)(F)F)Cc2nn(Cc3ccc(C(F)(F)F)nc3)c(=O)n21)N1CC(F)C(F)C1 (racemic) [Example 582, (5RS,7RS)-5-{[rel-(3R,4R)-3,4-Difluoropyrrolidin-1-yl]carbonyl}-7-(trifluoromethyl)-2-{[6-(trifluoromethyl)pyridin-3-yl]methyl}-5,6,7,8-tetrahydro[1,2,4]triazolo[4,3-a]pyridin-3(2H)-one]",6.85
3,"Cn1nc(Cn2nc3n(c2=O)[C@H](C(=O)N2CCC(F)(F)C2)CCC3)c2cccnc21 [Example 413, (5S)-5-[(3,3-Difluoropyrrolidin-1-yl)carbonyl]-2-[(1-methyl-1H-pyrazolo[3,4-b]pyridin-3-yl)methyl]-5,6,7,8-tetrahydro[1,2,4]triazolo[4,3-a]pyridin-3(2H)-one]",8.72
4,"O=C(C1CC(C(F)(F)F)Cc2nn(Cc3ncc(F)cc3Cl)c(=O)n21)N1CCC(F)(F)C1 (single isomer, unassigned) [Example 576, (5RS,7RS)-2-[(3-Chloro-5-fluoropyridin-2-yl)methyl]-5-[(3,3-difluoropyrrolidin-1-yl)carbonyl]-7-(trifluoromethyl)-5,6,7,8-tetrahydro[1,2,4]triazolo[4,3-a]pyridin-3(2H)-one]",8.06
5,"Cc1ccc(Cn2nc3n(c2=O)C(C(=O)N2CCC4(C2)CC4(F)F)CCC3)cc1 (mixture of isomers) [Example 128, (5S)-{[(3RS)-1,1-Difluoro-5-azaspiro[2.4]hept-5-yl]carbonyl}-2-(4-methylbenzyl)-5,6,7,8-tetrahydro[1,2,4]triazolo[4,3-a]pyridin-3(2H)-one]",7.34
6,"O=C(C1CCCc2nn(Cc3ccc(Cl)nc3)c(=O)n21)N1CCC(F)(F)C1 (racemic) [Example 80, (5RS)-2-[(6-Chloropyridin-3-yl)methyl]-5-[(3,3-difluoropyrrolidin-1-yl)carbonyl]-5,6,7,8-tetrahydro[1,2,4]triazolo[4,3-a]pyridin-3(2H)-one]",7.80
7,"O=C([C@@H]1CCCc2nn(Cc3ccc(F)cc3)c(=O)n21)N1C[C@@H](F)[C@@H](F)C1 [Example 452, (5S)-5-{[(3R,4S)-3,4-Difluoropyrrolidin-1-yl]carbonyl}-2-(4-fluorobenzyl)-5,6,7,8-tetrahydro[1,2,4]triazolo[4,3-a]pyridin-3(2H)-one]",8.89
8,"O=C([C@@H]1CCCc2nn(CC3(c4cccc(Cl)n4)CC3)c(=O)n21)N1CCC(F)(F)C1 [Example 349, (5S)-2-{[1-(6-Chloropyridin-2-yl)cyclopropyl]methyl}-5-[(3,3-difluoropyrrolidin-1-yl)carbonyl]-5,6,7,8-tetrahydro[1,2,4]triazolo[4,3-a]pyridin-3(2H)-one]",8.84
9,"COc1ccc(C2(Cn3nc4n(c3=O)[C@H](C(=O)N3CCC(F)(F)C3)CCC4)CC2)cc1 [Example 529, (5S)-5-[(3,3-Difluoropyrrolidin-1-yl)carbonyl]-2-{[1-(4-methoxyphenyl)cyclopropyl]methyl}-5,6,7,8-tetrahydro[1,2,4]triazolo[4,3-a]pyridin-3(2H)-one]",9.02
10,"Cc1cc(C)c(Cn2nc3n(c2=O)[C@H](C(=O)N2CCCC2)CCC3)cc1C [Example 102, (5S)-5-(Pyrrolidin-1-ylcarbonyl)-2-(2,4,5-trimethylbenzyl)-5,6,7,8-tetrahydro[1,2,4]triazolo[4,3-a]pyridin-3(2H)-one]",9.60
11,O=C(C1CCCc2nn(Cc3ccc(F)c(C(F)(F)F)c3)c(=O)n21)N1CCCC1 (racemic) [Example 66],9.42
12,"O=C([C@@H]1CCCc2nn(Cc3ccc(F)c(Cl)c3)c(=O)n21)N1CCC(F)(F)C1 [Example 455, (5S)-2-(3-Chloro-4-fluorobenzyl)-5-[(3,3-difluoropyrrolidin-1-yl)carbonyl]-5,6,7,8-tetrahydro[1,2,4]triazolo[4,3-a]pyridin-3(2H)-one]",9.11
13,"O=C(C1CC(C(F)(F)F)Cc2nn(Cc3ccnc(C(F)(F)F)c3F)c(=O)n21)N1C[C@@H](F)[C@@H](F)C1 (single isomer, unassigned) [Example 259]",7.77
14,"O=C(C1C(C(F)(F)F)CCc2nn(Cc3ncc(Cl)cc3F)c(=O)n21)N1CC(F)C1 (racemic) [Example 308, (5RS,6RS)-2-[(5-Chloro-3-fluoropyridin-2-yl)methyl]-5-[(3-fluoroazetidin-1-yl)carbonyl]-6-(trifluoromethyl)-5,6,7,8-tetrahydro[1,2,4]triazolo[4,3-a]pyridin-3(2H)-one]",6.90

# Other lines, results leading:
row,pIC50,SMILES
1,8.57,"O=C([C@@H]1CCCc2nn(Cc3ncc(C(F)(F)F)cc3Cl)c(=O)n21)N1CC(F)C1 [Example 402, (5S)-2-{[3-Chloro-5-(trifluoromethyl)pyridin-2-yl]methyl}-5-[(3-fluoroazetidin-1-yl)carbonyl]-5,6,7,8-tetrahydro[1,2,4]triazolo[4,3-a]pyridin-3(2H)-one]"
2,8.10,"O=C(C1CCCc2nn(Cc3ccc(OC(F)F)cc3)c(=O)n21)N1CCCC1 (racemic) [Example 7, (5RS)-2-[4-(Difluoromethoxy)benzyl]-5-(pyrrolidin-1-ylcarbonyl)-5,6,7,8-tetrahydro[1,2,4]triazolo[4,3-a]pyridin-3(2H)-one]"
3,7.52,"O=C(C1C(C(F)(F)F)CCc2nn(Cc3ccc(Cl)cn3)c(=O)n21)N1CC(F)C1 (single isomer, unassigned) [Example 311, (5RS,6RS)-2-[(5-Chloropyridin-2-yl)methyl]-5-[(3-fluoroazetidin-1-yl)carbonyl]-6-(trifluoromethyl)-5,6,7,8-tetrahydro[1,2,4]triazolo[4,3-a]pyridin-3(2H)-one]"
4,9.36,"Cc1ccc(CCn2nc3n(c2=O)[C@H](C(=O)N2CCCC2)CCC3)cc1 [Example 521, (5S)-2-[2-(4-Methylphenyl)ethyl]-5-(pyrrolidin-1-ylcarbonyl)-5,6,7,8-tetrahydro[1,2,4]triazolo[4,3-a]pyridin-3(2H)-one]"
5,8.91,"Cn1nc(Cn2nc3n(c2=O)[C@H](C(=O)N2CC(F)C2)CCC3)c2cccnc21 [Example 534, (5S)-5-[(3-Fluoroazetidin-1-yl)carbonyl]-2-[(1-methyl-1H-pyrazolo[3,4-b]pyridin-3-yl)methyl]-5,6,7,8-tetrahydro[1,2,4]triazolo[4,3-a]pyridin-3(2H)-one]"
6,9.16,"CC1CCC(C(=O)N2CC[C@H](F)C2)n2c1nn(Cc1ccc(F)c(Cl)c1)c2=O (mixture of isomers) [Example 320, (5RS,8RS)-2-(3-Chloro-4-fluorobenzyl)-5-{[(3S)-3-fluoropyrrolidin-1-yl]carbonyl}-8-methyl-5,6,7,8-tetrahydro[1,2,4]triazolo[4,3-a]pyridin-3(2H)-one]"
7,7.00,"Cc1nc(Cn2nc3n(c2=O)C(C(=O)N2CCCC2)CCC3)no1 (racemic) [Example 12, (5RS)-2-[(5-Methyl-1,2,4-oxadiazol-3-yl)methyl]-5-(pyrrolidin-1-ylcarbonyl)-5,6,7,8-tetrahydro[1,2,4]triazolo[4,3-a]pyridin-3(2H)-one]"
8,9.00,"O=C([C@@H]1CCCc2nn(Cc3cccc(C(F)(F)F)n3)c(=O)n21)N1CC[C@H](F)C1 [Example 370, (5S)-5-{[(3S)-3-Fluoropyrrolidin-1-yl]carbonyl}-2-{[6-(trifluoromethyl)pyridin-2-yl]methyl}-5,6,7,8-tetrahydro[1,2,4]triazolo[4,3-a]pyridin-3(2H)-one]"
9,8.20,"O=C(C1CCc2nn(Cc3ccc(F)c(Cl)c3)c(=O)n21)N1CC(F)C1 (racemic) [Example 171, (5RS)-2-(3-Chloro-4-fluorobenzyl)-5-[(3-fluoroazetidin-1-yl)carbonyl]-2,5,6,7-tetrahydro-3H-pyrrolo[2,1-c][1,2,4]triazol-3-one]"
10,7.60,"COC1CN(C(=O)C2CCCc3nn(Cc4ccc(C)cc4)c(=O)n32)C1 (racemic) [Example 125, (5RS)-5-[(3-Methoxyazetidin-1-yl)carbonyl]-2-(4-methylbenzyl)-5,6,7,8-tetrahydro[1,2,4]triazolo[4,3-a]pyridin-3(2H)-one]"
11,8.43,"O=C([C@@H]1CCCc2nn(Cc3ccc(C(F)(F)F)nc3)c(=O)n21)N1CC(F)C1 [Example 429, (5S)-5-[(3-Fluoroazetidin-1-yl)carbonyl]-2-{[6-(trifluoromethyl)pyridin-3-yl]methyl}-5,6,7,8-tetrahydro[1,2,4]triazolo[4,3-a]pyridin-3(2H)-one]"
12,9.27,"O=C([C@@H]1CCC(F)(F)c2nn(Cc3ccc(Cl)cn3)c(=O)n21)N1CC[C@H](F)C1 [Example 555, (5S)-2-[(5-Chloropyridin-2-yl)methyl]-8,8-difluoro-5-{[(3S)-3-fluoropyrrolidin-1-yl]carbonyl}-5,6,7,8-tetrahydro[1,2,4]triazolo[4,3-a]pyridin-3(2H)-one]"
